Test results taken from patent US11105747B2, “Spectroscopic methods to detect and characterize microorganisms” (Spectral Platforms, Inc., priority 2017, dated 2021).
≈ marks a conversion by molar mass, not a printed value.

System: unknown pathogen
Test: Antimicrobial susceptibility (MIC/MBC) from Raman slope and time to cloudiness versus antimicrobial concentration
Assay type: cell-based
Procedure: To measure the minimum inhibitory concentration, or to otherwise characterize the antimicrobial susceptibility of any unknown pathogen to a candidate antimicrobial: • (a) Incubate the unknown pathogen for about 3 hours in a rich media. This time period should suffice to increase the concentration of the causative pathogen by about >100×. […] Incubate this mixture for another 20 minutes, which allows for sufficient time for the 10 CFUs to interact with the candidate antimicrobial. • (d) Add the 7 mixtures to the test vials, and test. The number of free radicals present in the mixed sample is a function of the concentration of the antimicrobial, and so the final slope can be plotted against antimicrobial concentration to develop estimates for the MIC. This is illustrated in FIGS. 32A and 32B.
FIG. 32A depicts the measured slope as a function of antimicrobial agent (vancomycin) concentration. FIG. 32B depicts the time taken for the tested samples to become cloudy. Above 2 μg/m L, the samples remain clear for very long incubation periods (>96 hours). Thus, the Minimum Bactericidal Concentration MBC is about 2 μg/mL. Above 0.25 mg/mL, the time to cloudiness increases slightly. […] As illustrated in FIGS. 32A and 32B, the MIC corresponds to the concentration at which the signal decreases slightly. Further, the MBC (Minimum Bactericidal Concentration) corresponds to the concentration at which the signal increases again.

Q: `CN[C@H](CC(C)C)C(=O)N[C@H]1C(=O)N[C@@H](CC(N)=O)C(=O)N[C@H]2C(=O)N[C@H]3C(=O)N[C@H](C(=O)N[C@H](C(=O)O)c4cc(O)cc(O)c4-c4cc3ccc4O)[C@H](O)c3ccc(c(Cl)c3)Oc3cc2cc(c3O[C@@H]2O[C@H](CO)[C@@H](O)[C@H](O)[C@H]2O[C@H]2C[C@](C)(N)[C@H](O)[C@H](C)O2)Oc2ccc(cc2Cl)[C@H]1O` [vancomycin] was tested. Which “time taken for the tested samples to become cloudy (samples remain clear)” value (above 2 μg/mL vancomycin) did it give?
A: > 96 h

Q: And the MBC (concentration above which samples remain clear, signal increases again, read-out: Minimum Bactericidal Concentration MBC)?
A: ~2 µg/mL (≈ 1.38 µM)

Q: What about the MIC (read-out: MIC (minimum inhibitory concentration)) of the same compound?
A: ~250 µg/mL (≈ 173 µM)
